Data taken from article PMC3112458, “Marked increase in etravirine and saquinavir plasma concentrations during atovaquone/proguanil prophylaxis” (Malaria Journal, 2011).
Like-named read-outs stand apart in the source and are kept apart here.

Columns and labels:
[1] = set-up: method as in PMID 17297027; settings: cited from earlier work
[2] = set-up: method as in PMID 17297027; settings: cited from earlier work; remark: listed apart in the source
[3] = set-up: method as in PMID 20299957; settings: cited from earlier work
[4] = 12 hour-PK of anti-retrovirals before and at day 20 of atovaquone/proguanil prophylaxis (HPLC-UV, plasma); type: in vivo, human; settings: for Δ AUC0-12h (during prophylaxis AUC minus pre-prophylaxis AUC): plasma, one HIV patient, day 20 of atovaquone/proguanil 250/100 mg daily vs before prophylaxis
Description: In September 2009, the patient planned to spend a two-week holiday in Kenya. […] Standard malaria prophylaxis with atovaquone/proguanil fixed-dose combination (250/100 mg) was prescribed: one tablet daily starting two days before the journey and ending the treatment seven days after return to Italy. A 12 hour-PK of anti-retrovirals was performed before starting prophylaxis with atovaquone/proguanil (Figure 1). The samples were collected in fasting status following this order: the first sample 12 hours after the last dose of anti-retrovirals (pre-dose); the second sample one hour after breakfast and anti-retrovirals consumption; the following samples at 2, 4, 6 and 12 hours post anti-retrovirals' intake. The second PK for the determination of anti-retrovirals' plasma concentrations during atovaquone/proguanil prophylaxis was collected at day 20 on prophylaxis with the same timing plan (Figure 1). In order to avoid any food interference with the PK results, the same diet was administered in both the PK sampling days.

P-glycoprotein and MRP1 = tested on: P-glycoprotein and MRP1; set-up: method as in PMID 9530286, PMID 9835508; settings: cited from earlier work
P450 system = tested on: P450 system; set-up: method as in PMID 9530286, PMID 9835508; settings: cited from earlier work
[5] = tested on: CYP2C9, 2C19 and P-glycoprotein; set-up: method as in PMID 19725591; settings: cited from earlier work
CYP3A = tested on: CYP3A; set-up: method as in PMID 19725591; settings: cited from earlier work

O=C1C(O)=C([C@H]2CC[C@H](c3ccc(Cl)cc3)CC2)C(=O)c2ccccc21 [atovaquone]
protein-bound [1]: > 99%
elimination half-life ([2]; adults): 48 to 72 h
drug excreted unchanged in the faeces [2]: 94%
geometric mean ratio (95% confidence interval) of AUC of atovaquone ([3]; patients on atazanavir/ritonavir compared with healthy volunteers): 0.54 (0.35-0.83)
geometric mean ratio (95% confidence interval) of AUC of atovaquone ([3]; patients on efavirenz compared with healthy volunteers): 0.25 (0.16-0.38)
geometric mean ratio (95% confidence interval) of AUC of atovaquone ([3]; patients on lopinavir/ritonavir compared with healthy volunteers): 0.26 (0.17-0.41)

Cc1nnc(C(=O)NC(C)(C)c2nc(C(=O)NCc3ccc(F)cc3)c(O)c(=O)n2C)o1 [raltegravir]
Tmax and Cmax in post-prophylaxis versus pre-prophylaxis ([4]; PK profiles, day 20 of atovaquone/proguanil prophylaxis): earlier
Δ AUC0-12h (during prophylaxis AUC minus pre-prophylaxis AUC) [4]: -23%

CC(C)(C)NC(=O)[C@@H]1C[C@@H]2CCCC[C@@H]2CN1C[C@@H](O)[C@H](Cc1ccccc1)NC(=O)[C@H](CC(N)=O)NC(=O)c1ccc2ccccc2n1 [saquinavir]
Δ AUC0-12h (during prophylaxis AUC minus pre-prophylaxis AUC) [4]: +274%
interaction with P-glycoprotein and MRP1 (P-glycoprotein and MRP1): substrate and inhibitor
induction or inhibition of P450 system (P450 system): neither an inducer nor an inhibitor

Cc1cc(C#N)cc(C)c1Oc1nc(Nc2ccc(C#N)cc2)nc(N)c1Br [etravirine]
Δ AUC0-12h (during prophylaxis AUC minus pre-prophylaxis AUC) [4]: +55%
inhibition of CYP2C9, 2C19 and P-glycoprotein [5]: mild inhibitor
induction of CYP3A (CYP3A): inducer

[H]/N=C(\N/C(=N/[H])Nc1ccc(Cl)cc1)NC(C)C [proguanil]
protein-bound [1]: 75%
absolute bioavailability [2]: ≤ 60%
elimination half-life [2]: 12 to 21 h
time to peak plasma concentrations [2]: 2 to 4 h
plasma concentrations lower ([3]; patients on efavirenz, lopinavir/ritonavir or atazanavir/ritonavir compared with healthy volunteers): 38-43%
